According to publication PMC10390517, “Design, synthesis, in vitro, and in silico evaluations of benzo[d]imidazole-amide-1,2,3-triazole-N-arylacetamide hybrids as new antidiabetic agents targeting α-glucosidase” (Scientific Reports, 2023):
Where two headings read alike, the source gives them in different places.

Assays:
α-glucosidase [1] = biological target: T1, α-glucosidase (Saccharomyces cerevisiae, UniProt P53341); assay: biochemical; type: biochemical; conditions: for IC50: yeast form of α-glucosidase, mean ± S.E. of at least three different experiments; for activity against α-glucosidase (in words): SAR discussion / conclusion, compared with acarbose
Procedure: The newly synthesized benzo[d]imidazole-amide-1,2,3-triazole-N-arylacetamide hybrids 8a–n were evaluated against yeast form of α-glucosidase.

[2] = In vitro cytotoxicity by MTT method, HDF; conditions: human, HDF normal human cells
[3] = system: normal human cell line (HDF); assay: In vitro cytotoxicity by MTT method, HDF; conditions: normal cell line HDF
[4] = In vitro cytotoxicity by MTT method, MCF-7; conditions: human, MCF-7 breast cancer cells
[5] = system: breast cancer cell line (MCF-7); assay: In vitro cytotoxicity by MTT method, MCF-7; conditions: cancer cell line MCF-7
α-glucosidase [6] = biological target: T1, α-glucosidase; assay: Kinetic study of α-glucosidase inhibition (Lineweaver–Burk plots); type: biochemical, yeast
Procedure: Therefore, values of Vmax remained constant while the values of Km increased. […] Besides, the Ki value was 40.0 µM that was obtained by the secondary plot of Lineweaver–Burk plots (Fig. 2b).
Figure 2 Inhibitory kinetics of compound 8c on α-glucosidase. (a) Lineweaver–Burk plots for inhibition of compound 8c. (b) The secondary plot of Lineweaver–Burk plots for determination Ki value of compound 8c.
In vitro anti-α-glucosidase inhibition and kinetic study of the new compounds 8a–n were performed exactly according to our pervious reported works.

[7] = read-out: IC50 (α-glucosidase inhibitory activity)
[8] = IC50 (α-glucosidase inhibitory activity)

T1 sequence (P53341 whole entry): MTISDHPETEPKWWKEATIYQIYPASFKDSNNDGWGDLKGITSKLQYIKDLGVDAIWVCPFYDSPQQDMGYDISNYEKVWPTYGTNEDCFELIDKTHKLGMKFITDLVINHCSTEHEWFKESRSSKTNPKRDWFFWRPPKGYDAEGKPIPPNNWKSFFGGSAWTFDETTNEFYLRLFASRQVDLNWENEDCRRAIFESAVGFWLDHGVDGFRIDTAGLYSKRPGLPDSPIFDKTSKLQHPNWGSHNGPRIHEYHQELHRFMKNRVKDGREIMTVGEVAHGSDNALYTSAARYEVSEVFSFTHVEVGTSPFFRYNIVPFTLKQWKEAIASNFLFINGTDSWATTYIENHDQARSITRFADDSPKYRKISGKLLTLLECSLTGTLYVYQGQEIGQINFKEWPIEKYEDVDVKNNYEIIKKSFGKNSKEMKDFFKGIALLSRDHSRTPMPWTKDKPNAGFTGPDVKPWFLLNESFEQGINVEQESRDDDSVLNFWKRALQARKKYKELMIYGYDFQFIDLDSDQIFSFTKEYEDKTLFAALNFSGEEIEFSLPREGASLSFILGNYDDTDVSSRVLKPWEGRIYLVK

Row | SMILES | IC50 (α-glucosidase [1]; [7]) [µM] | melting point [°C] | IC50 (α-glucosidase [1]; [8]) [µM] | also measured
1 | O=C(Cn1cc(CNC(=O)c2nc3ccccc3[nH]2)nn1)Nc1ccc([N+](=O)[O-])cc1 [8n, N-((1-(2-((4-nitrophenyl)amino)-2-oxoethyl)-1H-1,2,3-triazol-4-yl)methyl)-1H-benzo[d]imidazole-2-carboxamide] | > 750 | 259 to 261 | – | –
2 | O=C(Cn1cc(CNC(=O)c2nc3ccccc3[nH]2)nn1)Nc1ccccc1 [8a, N-((1-(2-oxo-2-(phenylamino)ethyl)-1H-1,2,3-triazol-4-yl)methyl)-1H-benzo[d]imidazole-2-carboxamide] | > 750 | – | – | activity against α-glucosidase (in words) (α-glucosidase [1]): have not activity
3 | CCc1ccc(NC(=O)Cn2cc(CNC(=O)c3nc4ccccc4[nH]3)nn2)cc1 [8h, N-((1-(2-((4-ethylphenyl)amino)-2-oxoethyl)-1H-1,2,3-triazol-4-yl)methyl)-1H-benzo[d]imidazole-2-carboxamide] | 251.9 ± 1.6 | 213 to 215 | – | –
4 | O=C(Cn1cc(CNC(=O)c2nc3ccccc3[nH]2)nn1)Nc1ccc(Cl)cc1Cl [8l, N-((1-(2-((2,4-dichlorophenyl)amino)-2-oxoethyl)-1H-1,2,3-triazol-4-yl)methyl)-1H-benzo[d]imidazole-2-carboxamide] | 668.5 ± 1.4 | 247 to 249 | – | –
5 | COc1ccc(NC(=O)Cn2cc(CNC(=O)c3nc4ccccc4[nH]3)nn2)cc1 [8i, N-((1-(2-((4-methoxyphenyl)amino)-2-oxoethyl)-1H-1,2,3-triazol-4-yl)methyl)-1H-benzo[d]imidazole-2-carboxamide] | – | 235 to 237 | > 750 | –
6 | Cc1cccc(NC(=O)Cn2cc(CNC(=O)c3nc4ccccc4[nH]3)nn2)c1C [8e, N-((1-(2-((2,3-dimethylphenyl)amino)-2-oxoethyl)-1H-1,2,3-triazol-4-yl)methyl)-1H-benzo[d]imidazole-2-carboxamide] | 119.2 ± 0.8 | 216 to 218 | – | inhibitory activity diminished (fold) relative to 8c (α-glucosidase [1]; addition of a 2-methyl group to 3-methyl derivative 8c): around 2.5 fold; IC50 [2]: > 200 µM; cytotoxic activity (in words) [3]: did not show cytotoxic activity; IC50 [4]: > 200 µM; cytotoxic activity (in words) [5]: did not show cytotoxic activity
7 | O=C(Cn1cc(CNC(=O)c2nc3ccccc3[nH]2)nn1)Nc1ccc(Cl)cc1 [8k, N-((1-(2-((4-chlorophenyl)amino)-2-oxoethyl)-1H-1,2,3-triazol-4-yl)methyl)-1H-benzo[d]imidazole-2-carboxamide] | – | 236 to 238 | 134.2 ± 0.9 | –
8 | Cc1ccccc1NC(=O)Cn1cc(CNC(=O)c2nc3ccccc3[nH]2)nn1 [8b, N-((1-(2-oxo-2-(o-tolylamino)ethyl)-1H-1,2,3-triazol-4-yl)methyl)-1H-benzo[d]imidazole-2-carboxamide] | – | – | > 750 | activity against α-glucosidase (in words) (α-glucosidase [1]): have not activity
9 | O=C(Cn1cc(CNC(=O)c2nc3ccccc3[nH]2)nn1)Nc1ccc(Br)cc1 [8m, N-((1-(2-((4-bromophenyl)amino)-2-oxoethyl)-1H-1,2,3-triazol-4-yl)methyl)-1H-benzo[d]imidazole-2-carboxamide] | – | 227 to 229 | 183.6 ± 0.8 | –
10 | Cc1cccc(NC(=O)Cn2cc(CNC(=O)c3nc4ccccc4[nH]3)nn2)c1 [8c, N-((1-(2-oxo-2-(m-tolylamino)ethyl)-1H-1,2,3-triazol-4-yl)methyl)-1H-benzo[d]imidazole-2-carboxamide] | – | 206 to 208 | 49 ± 0.4 | fold more potent than positive control (acarbose) (α-glucosidase [1]; ratio of IC50 values vs acarbose): 15.3 fold; inhibition mechanism against α-glucosidase (α-glucosidase [6]; Lineweaver–Burk plot, Vmax constant, Km increased): competitive inhibitor; Ki (α-glucosidase [6]; secondary plot of Lineweaver–Burk plots): 40 µM; IC50 [2]: > 200 µM; cytotoxic activity (in words) [3]: did not show cytotoxic activity; IC50 [4]: > 200 µM; cytotoxic activity (in words) [5]: did not show cytotoxic activity
11 | Cc1cccc(C)c1NC(=O)Cn1cc(CNC(=O)c2nc3ccccc3[nH]2)nn1 [8g, N-((1-(2-((2,6-dimethylphenyl)amino)-2-oxoethyl)-1H-1,2,3-triazol-4-yl)methyl)-1H-benzo[d]imidazole-2-carboxamide] | 125.6 ± 0.3 | 222 to 224 | – | IC50 [2]: > 200 µM; cytotoxic activity (in words) [3]: did not show cytotoxic activity; IC50 [4]: > 200 µM; cytotoxic activity (in words) [5]: did not show cytotoxic activity
12 | Cc1ccc(NC(=O)Cn2cc(CNC(=O)c3nc4ccccc4[nH]3)nn2)c(C)c1 [8f, N-((1-(2-((2,4-dimethylphenyl)amino)-2-oxoethyl)-1H-1,2,3-triazol-4-yl)methyl)-1H-benzo[d]imidazole-2-carboxamide] | 422.6 ± 1.1 | 226 to 228 | – | –
13 | Cc1ccc(NC(=O)Cn2cc(CNC(=O)c3nc4ccccc4[nH]3)nn2)cc1 [8d, N-((1-(2-oxo-2-(p-tolylamino)ethyl)-1H-1,2,3-triazol-4-yl)methyl)-1H-benzo[d]imidazole-2-carboxamide] | – | 209 to 211 | > 750 | activity against α-glucosidase (in words) (α-glucosidase [1]): have not activity
14 | O=C(Cn1cc(CNC(=O)c2nc3ccccc3[nH]2)nn1)Nc1ccc(F)cc1 [8j, N-((1-(2-((4-fluorophenyl)amino)-2-oxoethyl)-1H-1,2,3-triazol-4-yl)methyl)-1H-benzo[d]imidazole-2-carboxamide] | – | 245 to 247 | > 750 | –
